Reference: patent publication US11072741B2, “Optically anisotropic layer, method for producing the optically anisotropic layer, a laminate, polarizing plate, display device, liquid crystal compound, method for producing the liquid crystal compound, and carboxylic acid compound” (FUJIFILM Corporation, priority 2014, dated 2021)

What was measured:
[1] = Evaluation of phase transition temperature by polarizing microscope; format: physicochemical; details: for TNi(° C.) Isotropic Phase Transition Point / Tsm—N(° C.) Sm—N Transition Point: during temperature increase; for Phase Transition Temperature Evaluation of Decrease: versus comparative compound with the same Ar and side chain portion of Formula (Ia)
Excerpt: Here, the temperature at which the compound transitions from the smectic phase to the nematic phase may be easily measured by observation of the composition employing polarized light microscopy. For example, in the nematic phase, a schlieren texture specific to the nematic phase is observed, while the texture transitions to a focal conic fan texture in a smectic A phase. Therefore, the phase transition temperature can be measured by observing the textures with a polarizing microscope while increasing or decreasing the temperature.
The phase transition temperatures of the synthesized liquid crystal compounds of the Examples and Comparative Examples were observed using a polarizing microscope to evaluate the degrees of temperature decrease. Specifically, the compounds of the Examples were compared to the compounds of the Comparative Examples, which have different structures for the side chain portions thereof. That is, the phase transition temperature of a compound of a Comparative Example having Ar (the aromatic ring at the center of General Formula 1) in common with the Examples and a side chain portion represented by Formula (Ia) below was used as a reference. Evaluations of A through C were assigned according to the degree of temperature decrease from the reference phase transition temperature.
(§1) For example, compound (I-1) and (I-2) were compared to Comparative Compound (Ia-1), and Compound (III-3) was compared to Comparative Compound (IIIa-3). The evaluation was carried out based on the following criteria.
A: decrease in melting point or Sm-N (smectic-nematic) transition temperature is 20° C. or greater
B: decrease in melting point or Sm-N (smectic-nematic) transition temperature is 5° C. or greater and less than 20° C.
C: decrease in melting point or Sm-N (smectic-nematic) transition temperature is less than 5° C.
With respect to the phase transition temperature, the numerical value in parentheses represents the numerical value during temperature decrease, and other numerical values represent a numerical value during temperature increase.

[2] = Measurement and evaluation of solubility in MEK and CPN; format: physicochemical; details: for Solubility CPN wt %: cyclopentanone; for Solubility CPN wt % / Solubility MEK wt %: room temperature, visual observation, 5 wt % increments; for Solubility MEK wt %: methyl ethyl ketone; for Solubility Evaluation: versus comparative compound with the same Ar and side chain portion of Formula (Ia)
Procedure: Solubility measurements of the synthesized liquid crystal compounds were conducted by the following method. 50 mg of each compound was weighted into a 1.5 mL sample bottle, and solvent was added until the solid component became 40 wt % (75 mg). The solubility was determined to be 40 wt % if clear under visual observation after shaking well manually at room temperature. If undissolved residue was present, solvent was added such that the solid component became 35 wt % (+18 mg). The solubility was determined to be 35 wt % if clear under visual observation after shaking well manually at room temperature. If undissolved residue was present, solvent was added such that the solid component became 30 wt %. Similar operations were performed in increments of 5 wt %, and repeated until the solid component became 5 wt %. If undissolved residue was present, the solubility was determined to be less than 5 wt % (<5 wt %), and measurements were completed. MEK (methyl ethyl ketone) and CPN (cyclopentanone) were utilized as solvents for measuring solubility.
The measured values of solubility were evaluated. The evaluations were conducted by using solubility of a compound of a Comparative Example having Ar (the aromatic ring at the center of General Formula 1) in common with the Examples and a side chain portion represented by Formula (Ia) as a reference, in a manner similar to that in the evaluation of the phase transition temperature. Evaluations of A through C were assigned according to the degree of improvement in solubility from the reference solubility.
as §1
A: solubility improved twofold or greater in plural solvents or a single solvent
B: solubility was the same or improved up to twofold in plural solvents or a single solvent
C: no improvement in solubility in plural solvents or a single solvent

SMILES	TNi(° C.) Isotropic Phase Transition Point [1]	Tsm—N(° C.) Sm—N Transition Point [1]	Solubility CPN wt % [2]	Solubility MEK wt % [2]	melting point	Phase Transition Temperature Evaluation of Decrease [1]	Solubility Evaluation [2]
C=CC(=O)OCCCCCCOc1ccc(OC(=O)[C@H]2CC[C@H](C(=O)Oc3ccc(OC(=O)[C@H]4CC[C@H](C(=O)Oc5ccc(OCCCCCCOC(=O)C=C)cc5)CC4)c4sc(=S)sc34)CC2)cc1 [VIa-7]	247 °C	164 °C	20 wt %	<10 wt %	124 °C	–	–
C=C(C)C(=O)OCCNC(=O)OCCc1ccc(OC(=O)[C@H]2CC[C@H](C(=O)Oc3ccc(OC(=O)[C@H]4CC[C@H](C(=O)Oc5ccc(CCOC(=O)NCCOC(=O)C(=C)C)cc5)CC4)c4c3SC(=C(C#N)C#N)S4)CC2)cc1 [Compound I-9]	220 °C	158 °C	20 wt %	5 wt %	130 °C	B (decrease in melting point or Sm-N (smectic-nematic) transition temperature is 5 °C or greater and less than 20° C.)	B (solubility was the same or improved up to twofold in plural solvents or a single solvent)
C=CC(=O)OCCCCOC(=O)CCC(=O)OCCc1ccc(OC(=O)[C@H]2CC[C@H](C(=O)Oc3ccc(OC(=O)[C@H]4CC[C@H](C(=O)Oc5ccc(CCOC(=O)CCC(=O)OCCCCOC(=O)C=C)cc5)CC4)c4c3SC(=C(C#N)C#N)S4)CC2)cc1 [Compound I-3]	156 °C	126 °C	25 wt %	15 wt %	107 °C	A (decrease in melting point or Sm-N (smectic-nematic) transition temperature is 20 °C or greater)	A (solubility improved twofold or greater in plural solvents or a single solvent)
C=CC(=O)OCCOCCOC(=O)CCC(=O)OCCc1ccc(OC(=O)[C@H]2CC[C@H](C(=O)Oc3ccc(OC(=O)[C@H]4CC[C@H](C(=O)Oc5ccc(CCOC(=O)CCC(=O)OCCOCCOC(=O)C=C)cc5)CC4)c4c3SC(=C(C#N)C#N)S4)CC2)cc1 [Compound I-5]	172 °C	146 °C	40 wt %	15 wt %	110 °C	A (decrease in melting point or Sm-N (smectic-nematic) transition temperature is 20 °C or greater)	A (solubility improved twofold or greater in plural solvents or a single solvent)
C=CC(=O)OCCCCCCOc1ccc(OC(=O)[C@H]2CC[C@H](C(=O)Oc3ccc(OC(=O)[C@H]4CC[C@H](C(=O)Oc5ccc(OCCCCCCOC(=O)C=C)cc5)CC4)c4c3SC(=C(C#N)C#N)S4)CC2)cc1 [Ia-1]	>210 ^ ° C.	183 °C	10 wt %	<5 wt %	148 °C	–	–
C=CC(=O)OCCCCCCOc1ccc(OC(=O)[C@H]2CC[C@H](C(=O)Oc3ccc(OC(=O)[C@H]4CC[C@H](C(=O)Oc5ccc(OCCCCCCOC(=O)C=C)cc5)CC4)c4c3SC(=C(C#N)C(=O)OCCC(C)(C)O)S4)CC2)cc1 [IIIa-7]	157 °C	–	40 wt %	20 wt %	106 °C	–	–
N#CC(C#N)=C1Sc2c(OC(=O)[C@H]3CC[C@H](C(=O)Oc4ccc(CCOC(=O)CCCCCCCCC5CO5)cc4)CC3)ccc(OC(=O)[C@H]3CC[C@H](C(=O)Oc4ccc(CCOC(=O)CCCCCCCCC5CO5)cc4)CC3)c2S1 (stereo partly drawn) [Compound I-15]	190 °C	–	25 wt %	10 wt %	127 °C	A (decrease in melting point or Sm-N (smectic-nematic) transition temperature is 20 °C or greater)	A (solubility improved twofold or greater in plural solvents or a single solvent)

Now from value to compound, other results behind:

TNi(° C.) Isotropic Phase Transition Point [1]	Tsm—N(° C.) Sm—N Transition Point [1]	Solubility CPN wt % [2]	Solubility MEK wt % [2]	melting point	SMILES	Phase Transition Temperature Evaluation of Decrease [1]	Solubility Evaluation [2]
172 °C	–	35 wt %	15 wt %	148 °C	C=CC(=O)OCCOC(=O)CCC(=O)OCCc1ccc(OC(=O)[C@H]2CC[C@H](C(=O)Oc3cc(C)c(OC(=O)[C@H]4CC[C@H](C(=O)Oc5ccc(CCOC(=O)CCC(=O)OCCOC(=O)C=C)cc5)CC4)c4c3SC(=C(C#N)C#N)S4)CC2)cc1 [IV-1]	A (decrease in melting point or Sm-N (smectic-nematic) transition temperature is 20 °C or greater)	A (solubility improved twofold or greater in plural solvents or a single solvent)
145 °C	137 °C	25 wt %	15 wt %	123 °C	C=CC(=O)OCCOC(=O)CCC(=O)OCCc1ccc(OC(=O)[C@H]2CC[C@H](C(=O)Oc3ccc(OC(=O)[C@H]4CC[C@H](C(=O)Oc5ccc(CCOC(=O)CCC(=O)OCCOC(=O)C=C)cc5)CC4)c4sc(=S)sc34)CC2)cc1 [VI-7]	A (decrease in melting point or Sm-N (smectic-nematic) transition temperature is 20 °C or greater)	B (solubility was the same or improved up to twofold in plural solvents or a single solvent)
176 °C	138 °C	20 wt %	10 wt %	102 °C	C=CC(=O)OCCCCOC(=O)Cc1ccc(OC(=O)[C@H]2CC[C@H](C(=O)Oc3ccc(OC(=O)[C@H]4CC[C@H](C(=O)Oc5ccc(CC(=O)OCCCCOC(=O)C=C)cc5)CC4)c4c3SC(=C(C#N)C#N)S4)CC2)cc1 [II-8]	A (decrease in melting point or Sm-N (smectic-nematic) transition temperature is 20 °C or greater)	A (solubility improved twofold or greater in plural solvents or a single solvent)
99 °C	–	40 wt %	40 wt %	95 °C	C=CC(=O)OCCOC(=O)CCC(=O)OCCc1ccc(OC(=O)[C@H]2CC[C@H](C(=O)Oc3cc(OCC)c(OC(=O)[C@H]4CC[C@H](C(=O)Oc5ccc(CCOC(=O)CCC(=O)OCCOC(=O)C=C)cc5)CC4)c4c3SC(=C(C#N)C#N)S4)CC2)cc1 [IV-10]	–	–
118 °C	–	20 wt %	10 wt %	100 °C	C=CC(=O)OCCOC(=O)CCC(=O)OCCc1ccc(OC(=O)[C@H]2CC[C@H](C(=O)Oc3ccc(OC(=O)[C@H]4CC[C@H](C(=O)Oc5ccc(CCOC(=O)CCC(=O)OCCOC(=O)C=C)cc5)CC4)c4c3SC(=C(C#N)C(=O)OC)S4)CC2)cc1 [III-3]	A (decrease in melting point or Sm-N (smectic-nematic) transition temperature is 20 °C or greater)	A (solubility improved twofold or greater in plural solvents or a single solvent)
210 °C	122 °C	15 wt %	5 wt %	116 °C	C=CC(=O)OCCOC(=O)Cc1ccc(OC(=O)[C@H]2CC[C@H](C(=O)Oc3ccc(OC(=O)[C@H]4CC[C@H](C(=O)Oc5ccc(CC(=O)OCCOC(=O)C=C)cc5)CC4)c4c3SC(=C(C#N)C#N)S4)CC2)cc1 [II-9]	A (decrease in melting point or Sm-N (smectic-nematic) transition temperature is 20 °C or greater)	B (solubility was the same or improved up to twofold in plural solvents or a single solvent)
